From US8436030B2, “Polymorphic forms of deferasirox (ICL670A)” (Navartis AG, priority 2006, dated 2013) come the findings set out here.

The data set in a line: Solubility of solid forms (comparative statement). The settings on record: as compared to the crystalline form A or B. It counts as physicochemical.

Turning to `O=C(O)c1ccc(-n2nc(-c3ccccc3O)nc2-c2ccccc2O)cc1` [amorphous form, 4-[3,5-bis(2-hydroxyphenyl)-[1,2,4]triazol-1-yl]benzoic acid], the solubility result is on record as “highest solubility”.
